Data from patent publication US10159265B2, “Feed composition for reducing ruminant methanogenesis” (priority 2012, dated 2018).
Marks after values point to notes of the source that are not given here.

Tests used:
Megasphaera elsdenii = assay: qPCR relative quantification of Megasphaera elsdenii; format: cell-based; conditions: 12 hours of incubation
Method: (§1) Rumen cannulated calves which received a mixed ration mainly composed of concentrate (90:10) were used as rumen fluid donor; feed composition is presented in Table 1. The inoculum was collected and filtered through two-layer surgical gauze and kept in thermo pots. Flavonoids (Table 2) plus 600 mg of concentrate (Table 1) and 60 mg of barley straw as the substrate were dosed by triplicate in preheated bottles (39° C.) and maintained under anaerobic conditions. Flavonoids isonaringin, neoeritrocin, poncirin were purchased from INDOFINE Chemical Company, Inc (USA). 10 ml of rumen fluid and 40 ml of incubation medium were added to the bottles (McDougall, El (1948) Studies on ruminant saliva. 1. The composition and output of sheep's saliva. Biochem J. 43(1) 99-109). Once the bottles were filled and the anaerobic condition was applied, the bottles were sealed and the incubation process was started in a hot water bath. Pressure readings were made at 2, 4, 6, 8, 12, 24, 36 and 48 hours. Each sample was incubated in triplicate in two sets or batches.
(§2) After 12 hours of incubation, one bottle (replicate) from each treatment was opened, pH was recorded and the bottle was sampled for volatile fatty acids (Jouany, J. P., 1982 Science des Aliments 2, 131-144), lactate (Taylor, K. A. C. C., 1996. Appl. Biochem. Biotechnol. Enzym. Eng. Biotechnol. 56, 49-58) and ammonia (Chaney, A. L., Marbach, E. P., 1962. Clin. Chem. 8, 130-132) analyses.
(§3) The environmental DNA was extracted using the technique proposed by Yu and Morrison (2004). Quantification of Streptococcus bovis, Megasphaera elsdenii and Selenomonas ruminantium DNA was done by qPCR using specific primers (Tajima, K. et al. 2001. Appl. Environ. Microb. 67, 2766-2774; Ouwerkerk, D., et al. 2002. J. Appl. Microbiol. 92, 753-758). Results were statistically analyzed using the PROC MIXED procedure of SAS statistical package (SAS, 2000, User's guide: Statistics, version 8 editions inst., Inc., Cary, N.C.). The least significant difference was used to compare the means. Differences between means in which P<0.05 were accepted as significant.

[1] = system: "in vitro" ruminal fluid cultures; assay: Ammonia (N-NH3) concentration in "in vitro" ruminal fluid cultures; format: cell-based, calves
Description: (§4) Two trials following an identical experimental protocol were designed to study the effect of different pure flavonoids on rumen fermentation using a simulatory “in vitro” system based on the experimental protocol described by Theodorou M K et al. (1994) Animal Feed Science and Technology, 48 (3), p. 185-197; Mauricio, R. M., et al. (1999) Animal Feed Science and Technology 79, 321-330.
as §1, §2

[2] = system: "in vitro" ruminal fluid culture; assay: Lactate concentration in "in vitro" ruminal fluid culture; format: cell-based, calves; conditions: 12 hours of incubation
Description: as §4, §1, §2

[3] = system: "in vitro" ruminal fluid cultures; assay: Ammonia (N-NH3) concentration in "in vitro" ruminal fluid cultures; format: cell-based, calves; conditions: 72 h
Selenomonas ruminantium = assay: qPCR relative quantification of Selenomonas ruminantium; format: cell-based; conditions: 12 hours of incubation
Method: as §1, §2, §3

[4] = system: "in vitro" ruminal fluid cultures; assay: Volatile fatty acid concentration and molar proportions in "in vitro" ruminal fluid cultures; format: cell-based, calves
Description: as §4, §1
[…] P., 1982 Science des Aliments 2, 131-144), lactate (Taylor, K. A. C. C., 1996. Appl. Biochem. Biotechnol. Enzym. Eng. Biotechnol. 56, 49-58) and ammonia (Chaney, A. L., Marbach, E. P., 1962. Clin. Chem. 8, 130-132) analyses.

ruminal bacteria = assay: Bacterial DNA concentration by qPCR; format: cell-based, calves; conditions: 12 hours of incubation
Method: as §1, §2, §3

[5] = system: "in vitro" rumen fluid culture; assay: Biogas production in "in vitro" rumen fluid culture (pressure meter); format: cell-based, calves; design: Average biogas production / Cumulative biogas production / Biogas production: unit not given here; conditions: Exp 1; for Average biogas production: average over doses and incubation times
Method: as §4
Gas production was determined from a semi-automatic pressure meter, the relationship between pressure levels and the produced gas volume was previously calculated.
as §1, with “Pressure readings were made at 2, 4, 6, 8, 12, 24, 36 and 48 hours.” left out

[6] = system: methanogenic (archea) populations; assay: Methane production in "in vitro" rumen fluid culture; format: cell-based, calves; design: Average methane production / Accumulated methane production / Methane production / Cumulative methane production: unit not given here; conditions: Exp 1
Description: as §4
as §1, with “Pressure readings were made at 2, 4, 6, 8, 12, 24, 36 and 48 hours.” left out
The effects of flavonoids substances on fermentation activity of certain archea populations which are theoretically responsible for the methane production were analyzed.
The experimental design allows determining whether the effect of flavonoids on methane reduction was derived from a general reduction in microbial activity and biogas production or contrarily flavonoid affects specifically on methanogenic (archea) populations. The presence of flavonoids in the culture medium reduced methane contribution in the total biogas production (P<0.05) although, again, the aforementioned impact was heterogeneous.

Streptococcus bovis = assay: qPCR relative quantification of Streptococcus bovis; format: cell-based; conditions: 12 hours of incubation
Method: as §1, §2, §3

[7] = average over doses and incubation times

For `COc1ccc([C@@H]2CC(=O)c3c(O)cc(O[C@@H]4O[C@H](CO)[C@@H](O)[C@H](O)[C@H]4O[C@@H]4O[C@@H](C)[C@H](O)[C@@H](O)[C@H]4O)cc3O2)cc1` [Poncirin, poncirin], the “Relative Quantification 2^(ΔΔCt) M. elsdenii” value (Megasphaera elsdenii) was 0.98 ^ab, the N-NH3 concentration ([1]; 0 h (initial constant value)) was 149.99 mg/L and the N-NH3 concentration ([1]; 12 h) was 159.33 mg/L. The “N-NH3 concentration, average (M)” value ([1]; average over incubation times) was 209.16 mg/L, the Lactate [2] was 87.5 mg/L and the N-NH3 concentration [3] was 318.15 mg/L. The “Relative Quantification 2^(ΔΔCt) S. ruminantium” value (Selenomonas ruminantium) was 0.68, the “% Acetate, molar ratio” value ([4]; 0 h) was 62.51 mol/100 mol and the “% Butyrate, molar ratio” value ([4]; 0 h) was 9.07 mol/100 mol. The “% Propionate, molar ratio” value ([4]; 0 h) was 20.03 mol/100 mol, the “A/P rate (acetate/propionate)” value ([4]; 0 h) was 3.12 and the VFA concentration ([4]; 0 h (initial constant value)) was 13.78 mmol/L. For the same compound, the “% Acetate, molar ratio” value ([4]; 12 h) was 55.44 mol/100 mol, the “% Butyrate, molar ratio” value ([4]; 12 h) was 9.61 mol/100 mol and the “% Propionate, molar ratio” value ([4]; 12 h) was 29.52 mol/100 mol. The “A/P rate (acetate/propionate)” value ([4]; 12 h) was 1.88, the VFA concentration ([4]; 12 h) was 36.98 mmol/L and the “% Acetate, molar ratio” value ([4]; 72 h) was 55.36 mol/100 mol. For the same compound, the “% Butyrate, molar ratio” value ([4]; 72 h) was 10.20 mol/100 mol, the “% Propionate, molar ratio” value ([4]; 72 h) was 26.96 mol/100 mol and the “A/P rate (acetate/propionate)” value ([4]; 72 h) was 2.05. For the same compound, the VFA concentration ([4]; 72 h) was 51.87 mmol/L, the “% Acetate, molar ratio, average (μ)” value ([4]; average over incubation times) was 57.77 mol/100 mol and the “% Butyrate, molar ratio, average (μ)” value ([4]; average over incubation times) was 9.63 ^a mol/100 mol. The “% Propionate, molar ratio, average (M)” value ([4]; average over incubation times) was 25.51 ^b mol/100 mol, the “VFA concentration, average (μ)” value ([4]; average over incubation times) was 34.21 mmol/L and the “% Propionate, molar ratio, average (M)” value ([4]; average over incubation times, listed as poncirin) was “improved”. For the same compound, the “Bacteria DNA” value (ruminal bacteria) was 10.12 ^a μg/ml, the Cumulative biogas production ([5]; 12 h incubation) was 180.63 and the Cumulative biogas production ([5]; 24 h incubation) was 224.90. For the same compound, the Cumulative biogas production ([5]; 48 h incubation) was 262.00, the Cumulative biogas production ([5]; 72 h incubation) was 284.28 and the Average biogas production [5] was 237.95^cde. For the same compound, the Average biogas production ([5]; listed as poncirin) was 238, the Biogas production ([5]; dose 1, 0.2 g/kg DM) was 234.43 and the Biogas production ([5]; dose 2, 0.5 g/kg DM) was 241.48. For the same compound, the Accumulated methane production ([6]; 12 h) was 19.19, the “Proportion of methane in the produced biogas” value (shortened to “Proportion of methane”) ([6]; 12 h) was 10.62 and the Accumulated methane production ([6]; 24 h) was 24.43. For the same compound, the “Proportion of methane” value ([6]; 24 h) was 11.94, the Accumulated methane production ([6]; 48 h) was 30.50 and the “Proportion of methane” value ([6]; 48 h) was 16.54. For the same compound, the Accumulated methane production ([6]; 72 h) was 34.07, the “Proportion of methane” value ([6]; 72 h) was 16.34 and the Average methane production [6, 7] was 27.04^de. The “Proportion of methane” value [6, 7] was 13.86^cd, the Average methane production ([6]; average over doses and incubation times, listed as poncirin) was “decreased” and the Methane production ([6]; dose 1, 0.2 g/kg DM) was 26.61. For the same compound, the “Proportion of methane” value ([6]; dose 1, 0.2 g/kg DM) was 13.92, the Methane production ([6]; dose 2, 0.5 g/kg DM) was 27.47 and the “Proportion of methane” value ([6]; dose 2, 0.5 g/kg DM) was 13.80. For the same compound, the “Relative Quantification 2^(ΔΔCt) S. bovis” value (Streptococcus bovis) was 0.44.
